Results published in the supplement of paper PMC9663587.

What was measured:
[1] = compound: CCc1cnn2c(NCc3ccc[n+]([O-])c3)cc(N3CCCC[C@H]3CCO)nc12; assay: GR value, 72 h; higher = faster growth (1 = untreated, <0 = killing);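 further: breast cancer and non-malignant breast epithelial lines, nine half-log doses, viable cells counted by Hoechst and LIVE/DEAD dye imaging versus time-zero plates and DMSO controls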
THZ1 = compound: CN(C)C/C=C/C(=O)Nc1ccc(C(=O)Nc2cccc(Nc3ncc(Cl)c(-c4c[nH]c5ccccc45)n3)c2)cc1 [THZ1]; assay: as above
BSJ-03-123 = compound: CC(=O)c1c(C)c2cnc(Nc3ccc(N4CCN(CCOCCOCCOCCNC(=O)COc5cccc6c5C(=O)N(C5CCC(=O)NC5=O)C6=O)CC4)cn3)nc2n(C2CCCC2)c1=O [BSJ-03-123]; assay: as above
[2] = compound: CCN1CCN(Cc2ccc(Nc3ncc(F)c(-c4cc(F)c5nc(C)n(C(C)C)c5c4)n3)nc2)CC1; assay: as above
Flavopiridol [3] = compound: T1, CN1CC[C@H](c2c(O)cc(O)c3c(=O)cc(-c4ccccc4Cl)oc23)[C@H](O)C1 [Flavopiridol]; assay: as above
LEE011/Ribociclib [4] = compound: T2, CN(C)C(=O)c1cc2cnc(Nc3ccc(N4CCNCC4)cn3)nc2n1C1CCCC1 [LEE011/Ribociclib]; assay: as above
[5] = compound: CC(=O)c1c(C)c2cnc(Nc3ccc(N4CCNCC4)cn3)nc2n(C2CCCC2)c1=O; assay: as above
Neratinib/HKI272 = compound: CCOc1cc2ncc(C#N)c(Nc3ccc(OCc4ccccn4)c(Cl)c3)c2cc1NC(=O)/C=C/CN(C)C [Neratinib/HKI272]; assay: as above
[6] = compound: CCN1CCN(Cc2ccc(Nc3ncc(F)c(-c4cc(F)c5nc(C)n(C(C)C)c5c4)n3)nc2)CC1; assay: increase in dead-cell fraction, 72 h; higher = more death;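 further: breast cancer cell lines in 384-well plates, stained with Hoechst plus LIVE/DEAD far red dye and imaged, cells above an LDR intensity threshold counted dead, Hoechst-negative corpses included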
Flavopiridol [7] = compound: T1, Flavopiridol; assay: as above
LEE011/Ribociclib [8] = compound: T2, LEE011/Ribociclib; assay: as above
[9] = compound: CC(=O)c1c(C)c2cnc(Nc3ccc(N4CCNCC4)cn3)nc2n(C2CCCC2)c1=O; assay: as above

With SUM229PE the GR value ([1]; 0.0001 µM) was 1.04 GR, the GR value ([1]; 0.0003162 µM) was 1.02 GR and the GR value ([1]; 0.001 µM) was 0.991 GR. For the same cell line, the GR value ([1]; 0.003162 µM) was 1.01 GR, the GR value ([1]; 0.01 µM) was 0.796 GR and the GR value ([1]; 0.03162 µM) was -0.122 GR. The GR value ([1]; 0.1 µM) was -0.194 GR, the GR value ([1]; 0.3162 µM) was -0.203 GR and the GR value ([1]; 1 µM) was -0.209 GR. For the same cell line, the GR value (THZ1; 0.0001 µM) was 1 GR, the GR value (THZ1; 0.0003162 µM) was 1 GR and the GR value (THZ1; 0.001 µM) was 1.04 GR. The GR value (THZ1; 0.003162 µM) was 0.953 GR, the GR value (THZ1; 0.01 µM) was 0.65 GR and the GR value (THZ1; 0.03162 µM) was 0.283 GR. For the same cell line, the GR value (THZ1; 0.1 µM) was -0.0615 GR, the GR value (THZ1; 0.3162 µM) was -0.216 GR and the GR value (THZ1; 1 µM) was -0.297 GR. The GR value (BSJ-03-123; 0.001 µM) was 0.887 GR, the GR value (BSJ-03-123; 0.003162 µM) was 0.881 GR and the GR value (BSJ-03-123; 0.01 µM) was 0.87 GR. For the same cell line, the GR value (BSJ-03-123; 0.03162 µM) was 0.857 GR, the GR value (BSJ-03-123; 0.1 µM) was 0.758 GR and the GR value (BSJ-03-123; 0.3162 µM) was 0.785 GR. For the same cell line, the GR value (BSJ-03-123; 1 µM) was 0.568 GR, the GR value (BSJ-03-123; 3.162 µM) was 0.497 GR and the GR value (BSJ-03-123; 10 µM) was 0.114 GR. The GR value ([2]; 0.001 µM) was 0.924 GR, the GR value ([2]; 0.003162 µM) was 0.888 GR and the GR value ([2]; 0.01 µM) was 0.831 GR. For the same cell line, the GR value ([2]; 0.03162 µM) was 0.727 GR, the GR value ([2]; 0.1 µM) was 0.611 GR and the GR value ([2]; 0.3162 µM) was 0.56 GR. The GR value ([2]; 1 µM) was 0.439 GR, the GR value ([2]; 3.162 µM) was 0.343 GR and the GR value ([2]; 10 µM) was 0.284 GR. It also gave a GR value (Flavopiridol [3]; 0.0001 µM) of 0.982 GR, a GR value (Flavopiridol [3]; 0.0003162 µM) of 0.93 GR and a GR value (Flavopiridol [3]; 0.001 µM) of 0.925 GR. For the same cell line, the GR value (Flavopiridol [3]; 0.003162 µM) was 0.954 GR, the GR value (Flavopiridol [3]; 0.01 µM) was 0.927 GR and the GR value (Flavopiridol [3]; 0.03162 µM) was 0.914 GR. It also gave a GR value (Flavopiridol [3]; 0.1 µM) of 0.559 GR, a GR value (Flavopiridol [3]; 0.3162 µM) of 0.0326 GR and a GR value (Flavopiridol [3]; 1 µM) of -0.182 GR. It also gave a GR value (LEE011/Ribociclib [4]; 0.001 µM) of 0.91 GR, a GR value (LEE011/Ribociclib [4]; 0.003162 µM) of 0.911 GR and a GR value (LEE011/Ribociclib [4]; 0.01 µM) of 0.822 GR. For the same cell line, the GR value (LEE011/Ribociclib [4]; 0.03162 µM) was 0.806 GR, the GR value (LEE011/Ribociclib [4]; 0.1 µM) was 0.758 GR and the GR value (LEE011/Ribociclib [4]; 0.3162 µM) was 0.722 GR. It also gave a GR value (LEE011/Ribociclib [4]; 1 µM) of 0.728 GR, a GR value (LEE011/Ribociclib [4]; 3.162 µM) of 0.633 GR and a GR value (LEE011/Ribociclib [4]; 10 µM) of 0.562 GR. The GR value ([5]; 0.0003162 µM) was 0.988 GR, the GR value ([5]; 0.001 µM) was 0.983 GR and the GR value ([5]; 0.003162 µM) was 0.933 GR. The GR value ([5]; 0.01 µM) was 0.906 GR, the GR value ([5]; 0.03162 µM) was 0.848 GR and the GR value ([5]; 0.1 µM) was 0.711 GR. For the same cell line, the GR value ([5]; 0.3162 µM) was 0.563 GR, the GR value ([5]; 1 µM) was 0.536 GR and the GR value ([5]; 3.162 µM) was 0.392 GR. It also gave a GR value (Neratinib/HKI272; 0.0003162 µM) of 1.03 GR, a GR value (Neratinib/HKI272; 0.001 µM) of 0.967 GR and a GR value (Neratinib/HKI272; 0.003162 µM) of 0.972 GR. It also gave a GR value (Neratinib/HKI272; 0.01 µM) of 0.951 GR, a GR value (Neratinib/HKI272; 0.03162 µM) of 0.952 GR and a GR value (Neratinib/HKI272; 0.1 µM) of 0.751 GR. The GR value (Neratinib/HKI272; 0.3162 µM) was 0.562 GR, the GR value (Neratinib/HKI272; 1 µM) was 0.386 GR and the GR value (Neratinib/HKI272; 3.162 µM) was 0.203 GR. The “increase in dead-cell fraction” value ([6]; 0.001 µM) was -0.0006, the “increase in dead-cell fraction” value ([6]; 0.003162 µM) was 0.004 and the “increase in dead-cell fraction” value ([6]; 0.01 µM) was -0.0023. For the same cell line, the “increase in dead-cell fraction” value ([6]; 0.03162 µM) was -0.0024, the “increase in dead-cell fraction” value ([6]; 0.1 µM) was 0.0008 and the “increase in dead-cell fraction” value ([6]; 0.3162 µM) was -0.006. The “increase in dead-cell fraction” value ([6]; 1 µM) was 0.0054, the “increase in dead-cell fraction” value ([6]; 3.162 µM) was 0.0064 and the “increase in dead-cell fraction” value ([6]; 10 µM) was 0.0095. The “increase in dead-cell fraction” value (Flavopiridol [7]; 0.0001 µM) was -0.0011, the “increase in dead-cell fraction” value (Flavopiridol [7]; 0.0003162 µM) was -0.0025 and the “increase in dead-cell fraction” value (Flavopiridol [7]; 0.001 µM) was 0.0061. The “increase in dead-cell fraction” value (Flavopiridol [7]; 0.003162 µM) was 0.0065, the “increase in dead-cell fraction” value (Flavopiridol [7]; 0.01 µM) was -0.0032 and the “increase in dead-cell fraction” value (Flavopiridol [7]; 0.03162 µM) was -0.003. The “increase in dead-cell fraction” value (Flavopiridol [7]; 0.1 µM) was 0.0189, the “increase in dead-cell fraction” value (Flavopiridol [7]; 0.3162 µM) was 0.0897 and the “increase in dead-cell fraction” value (Flavopiridol [7]; 1 µM) was 0.0752. The “increase in dead-cell fraction” value (LEE011/Ribociclib [8]; 0.001 µM) was 0.0025, the “increase in dead-cell fraction” value (LEE011/Ribociclib [8]; 0.003162 µM) was -0.003 and the “increase in dead-cell fraction” value (LEE011/Ribociclib [8]; 0.01 µM) was 0.0012. The “increase in dead-cell fraction” value (LEE011/Ribociclib [8]; 0.03162 µM) was 0.0068, the “increase in dead-cell fraction” value (LEE011/Ribociclib [8]; 0.1 µM) was 0.0061 and the “increase in dead-cell fraction” value (LEE011/Ribociclib [8]; 0.3162 µM) was 0.0005. The “increase in dead-cell fraction” value (LEE011/Ribociclib [8]; 1 µM) was 0.0021, the “increase in dead-cell fraction” value (LEE011/Ribociclib [8]; 3.162 µM) was 0.0223 and the “increase in dead-cell fraction” value (LEE011/Ribociclib [8]; 10 µM) was 0.0109. The “increase in dead-cell fraction” value ([9]; 0.0003162 µM) was -0.0072, the “increase in dead-cell fraction” value ([9]; 0.001 µM) was 0.0057 and the “increase in dead-cell fraction” value ([9]; 0.003162 µM) was -0.0076. For the same cell line, the “increase in dead-cell fraction” value ([9]; 0.01 µM) was -0.0059, the “increase in dead-cell fraction” value ([9]; 0.03162 µM) was -0.0018 and the “increase in dead-cell fraction” value ([9]; 0.1 µM) was -0.0045. For the same cell line, the “increase in dead-cell fraction” value ([9]; 0.3162 µM) was -0.0032, the “increase in dead-cell fraction” value ([9]; 1 µM) was -0.0082 and the “increase in dead-cell fraction” value ([9]; 3.162 µM) was 0.009.
